# Measurements published in US20240208961A1, “EIF4E INHIBITORS AND USES THEREOF” (PIC Therapeutics, Inc., priority 2022, published 2024).
# Where “and” joins values, the source holds several entries; their conditions need not be identical. Equal entries are not always repeated. Where two headings read alike, the source gives them in different places.
# How the values were obtained:
# [1] = system: ZR-75-1; experiment: Cell viability assay, adherent cell line, 5 day Alamar Blue (Example 8): ZR-75-1; type: cell-based; settings: Homo sapiens, 120 h, ZR-75-1, Breast Cancer Cell Viability
# [2] = Pharmacokinetic studies of certain compounds in female Balb/c mice (Example 5); type: in vivo
# Procedure: Pharmacokinetic studies were performed using Balb/c mice, 15-20 g, 6-9 weeks, female, N=9, purchased from Jihui Laboratory Animal Co. LTD. For compound I-29, Balb/c mice, 19-21 g, 9-11 weeks, female, N=9, were used. The mice were fasted overnight and fed at 4 h post dosing.
# Animals were dosed via oral gavage (PO) or tail vein injection (IV) with compound. Sampling occurred at 0.083, 0.25, 0.5, 1, 2, 4, 8, and 24 h post dose (8 time points). The animals were restrained manually at the designated time points. Approx. […] of blood was taken from the animals via facial vein for semi-serial bleeding into tubes with K2EDTA. Blood samples were put on ice and centrifuged at 4° C. (2000 g, 5 min) to obtain plasma within 15 min after sample collection. Plasma samples were stored in dry ice temporarily and at approximately −70° C. until analysis.
# For oral gavage, the compound was dosed as a suspension in 1% sodium carboxymethyl cellulose (CMC) and 0.2% Tween 80 in water. For 23.8 mg/kg and 30 mg/kg doses, 3 mg/mL was used; for 50 mg/kg doses, 5 mg/mL was used; and for 100 mg/kg doses, 10 mg/mL was used.
# For IV administration, the compound was dosed as a solution in 5% DMSO, 5% Solutol HS15 and 90% saline. For 1 mg/kg and 1.48 mg/kg doses, 0.2 mg/mL was used.
# Plasma samples were analyzed using LC-MS using a calibration curve of known concentrations.
# The results of these studies are summarized in Tables 11-21 below and in FIGS. 2-8. […] BQL=below quantifiable limit for compound in female Balb/c mouse plasma samples. NA=not available. PK parameters were estimated by non-compartmental model using WinNonlin 8.2. If the adjusted rsq (linear regression coefficient of the concentration value on the terminal phase) was less than 0.9, T1/2 might not have been accurately estimated. F value was determined by the following equation: • If AUClast/AUCINF>80%:
# F=(AUCINF-EX×DOSEIV)/(AUCINF-IV×DOSEEX)[…] • If AUClast/AUCINF<80% or AUCINF not available:
# F=(AUClast-EX×DOSEIV)/(AUClast-IV×DOSEEX)*1000
# [3] = I-3 IV 1 mg/kg, 24 hr, BQL = below quantifiable limit of 1.00 ng/mL
smiles,measurement,setting,value
CC(C)Cc1sc(Nc2ncc(-c3cccs3)cc2C(=O)O)nc1C1CCCCC1 [Compound I-3],IC50,[1],≤ 1 µM
same,Plasma concentration Individual,"[2]; I-3 IV 1 mg/kg, 0.083 hr, 1 mg/kg",1790 ng/mL and 2660 ng/mL
same,Plasma concentration Individual,"[2]; I-3 IV 1 mg/kg, 0.25 hr, 1 mg/kg",633 ng/mL and 539 ng/mL
same,Plasma concentration Individual,"[2]; I-3 IV 1 mg/kg, 0.5 hr, 1 mg/kg",292 ng/mL and 352 ng/mL
same,Plasma concentration Individual,"[2]; I-3 IV 1 mg/kg, 1 hr, 1 mg/kg",101 ng/mL and 116 ng/mL
same,Plasma concentration Individual,"[2]; I-3 IV 1 mg/kg, 2 hr, 1 mg/kg",35.6 ng/mL and 28.1 ng/mL
same,Plasma concentration Individual,"[2]; I-3 IV 1 mg/kg, 4 hr, 1 mg/kg",7.05 ng/mL and 7.52 ng/mL and 21.3 ng/mL
same,Plasma concentration Individual,"[2]; I-3 IV 1 mg/kg, 8 hr, BQL = below quantifiable limit of 1.00 ng/mL, 1 mg/kg",BQL
same,Plasma concentration Individual,[2]; [3],BQL
same,Plasma concentration Mean,[2]; [3],BQL
same,F,[2]; I-3 PO 30 mg/kg vs IV 1 mg/kg,36.0%
same,Plasma concentration Individual,"[2]; I-3 PO 30 mg/kg, 0.083 hr, 30 mg/kg",69.9 ng/mL and 44.9 ng/mL
same,Plasma concentration Individual,"[2]; I-3 PO 30 mg/kg, 0.25 hr, 30 mg/kg",420 ng/mL and 461 ng/mL
same,Plasma concentration Individual,"[2]; I-3 PO 30 mg/kg, 0.5 hr, 30 mg/kg",1920 ng/mL and 1840 ng/mL
same,Plasma concentration Individual,"[2]; I-3 PO 30 mg/kg, 1 hr, 30 mg/kg",1520 ng/mL and 1760 ng/mL
same,Plasma concentration Individual,"[2]; I-3 PO 30 mg/kg, 2 hr, 30 mg/kg",1530 ng/mL and 1800 ng/mL
same,Plasma concentration Individual,"[2]; I-3 PO 30 mg/kg, 4 hr, 30 mg/kg",896 ng/mL and 860 ng/mL
same,Plasma concentration Individual,"[2]; I-3 PO 30 mg/kg, 8 hr, 30 mg/kg",124 ng/mL and 186 ng/mL
same,Plasma concentration Individual,"[2]; I-3 PO 30 mg/kg, 24 hr, 30 mg/kg",10.6 ng/mL and 4.10 ng/mL and 3.10 ng/mL
same,concentration at 0.083 hr,"[2]; female, Balb/c, mouse, plasma, iv, 1 mg/kg, I-3 IV 1 mg/kg, 0.083 hr, read-out: Plasma concentration Individual",1910 ng/mL
same,concentration at 0.083 hr,"[2]; female, Balb/c, mouse, plasma, iv, 1 mg/kg, I-3 IV 1 mg/kg, 0.083 hr, read-out: Plasma concentration Mean",2120 ng/mL
same,concentration at 0.25 hr,"[2]; female, Balb/c, mouse, plasma, iv, 1 mg/kg, I-3 IV 1 mg/kg, 0.25 hr, read-out: Plasma concentration Individual",511 ng/mL
same,concentration at 0.25 hr,"[2]; female, Balb/c, mouse, plasma, iv, 1 mg/kg, I-3 IV 1 mg/kg, 0.25 hr, read-out: Plasma concentration Mean",561 ng/mL
same,concentration at 0.5 h,"[2]; female, Balb/c, mouse, plasma, iv, 1 mg/kg, I-3 IV 1 mg/kg, 0.5 hr, read-out: Plasma concentration Individual",246 ng/mL
same,concentration at 0.5 h,"[2]; female, Balb/c, mouse, plasma, iv, 1 mg/kg, I-3 IV 1 mg/kg, 0.5 hr, read-out: Plasma concentration Mean",297 ng/mL
same,concentration at 1 h,"[2]; female, Balb/c, mouse, plasma, iv, 1 mg/kg, I-3 IV 1 mg/kg, 1 hr, read-out: Plasma concentration Individual",111 ng/mL
same,concentration at 1 h,"[2]; female, Balb/c, mouse, plasma, iv, 1 mg/kg, I-3 IV 1 mg/kg, 1 hr, read-out: Plasma concentration Mean",109 ng/mL
same,concentration at 2 h,"[2]; female, Balb/c, mouse, plasma, iv, 1 mg/kg, I-3 IV 1 mg/kg, 2 hr, read-out: Plasma concentration Individual",28.7 ng/mL
same,concentration at 2 h,"[2]; female, Balb/c, mouse, plasma, iv, 1 mg/kg, I-3 IV 1 mg/kg, 2 hr, read-out: Plasma concentration Mean",30.8 ng/mL
same,concentration at 4 h,"[2]; female, Balb/c, mouse, plasma, iv, 1 mg/kg, I-3 IV 1 mg/kg, 4 hr, read-out: Plasma concentration Mean",12 ng/mL
same,concentration at 8 h,"[2]; female, Balb/c, mouse, plasma, iv, 1 mg/kg, I-3 IV 1 mg/kg, 8 hr, BQL = below quantifiable limit of 1.00 ng/mL, read-out: Plasma concentration Individual",1.62 ng/mL
same,concentration at 8 h,"[2]; female, Balb/c, mouse, plasma, iv, 1 mg/kg, I-3 IV 1 mg/kg, 8 hr, BQL = below quantifiable limit of 1.00 ng/mL, read-out: Plasma concentration Mean",1.62 ng/mL
same,concentration at 0.083 hr,"[2]; female, Balb/c, mouse, plasma, po, 30 mg/kg, I-3 PO 30 mg/kg, 0.083 hr, read-out: Plasma concentration Individual",56.7 ng/mL
same,concentration at 0.083 hr,"[2]; female, Balb/c, mouse, plasma, po, 30 mg/kg, I-3 PO 30 mg/kg, 0.083 hr, read-out: Plasma concentration Mean",57.2 ng/mL
same,concentration at 0.25 hr,"[2]; female, Balb/c, mouse, plasma, po, 30 mg/kg, I-3 PO 30 mg/kg, 0.25 hr, read-out: Plasma concentration Individual",453 ng/mL
same,concentration at 0.25 hr,"[2]; female, Balb/c, mouse, plasma, po, 30 mg/kg, I-3 PO 30 mg/kg, 0.25 hr, read-out: Plasma concentration Mean",445 ng/mL
same,concentration at 0.5 hr,"[2]; female, Balb/c, mouse, plasma, po, 30 mg/kg, I-3 PO 30 mg/kg, 0.5 hr, read-out: Plasma concentration Individual",1950 ng/mL
same,concentration at 0.5 hr,"[2]; female, Balb/c, mouse, plasma, po, 30 mg/kg, I-3 PO 30 mg/kg, 0.5 hr, read-out: Plasma concentration Mean",1900 ng/mL
same,concentration at 1 hr,"[2]; female, Balb/c, mouse, plasma, po, 30 mg/kg, I-3 PO 30 mg/kg, 1 hr, read-out: Plasma concentration Individual",1490 ng/mL
same,concentration at 1 hr,"[2]; female, Balb/c, mouse, plasma, po, 30 mg/kg, I-3 PO 30 mg/kg, 1 hr, read-out: Plasma concentration Mean",1590 ng/mL
same,concentration at 2 hr,"[2]; female, Balb/c, mouse, plasma, po, 30 mg/kg, I-3 PO 30 mg/kg, 2 hr, read-out: Plasma concentration Individual",1750 ng/mL
same,concentration at 2 hr,"[2]; female, Balb/c, mouse, plasma, po, 30 mg/kg, I-3 PO 30 mg/kg, 2 hr, read-out: Plasma concentration Mean",1690 ng/mL
same,concentration at 4 hr,"[2]; female, Balb/c, mouse, plasma, po, 30 mg/kg, I-3 PO 30 mg/kg, 4 hr, read-out: Plasma concentration Individual",991 ng/mL
same,concentration at 4 hr,"[2]; female, Balb/c, mouse, plasma, po, 30 mg/kg, I-3 PO 30 mg/kg, 4 hr, read-out: Plasma concentration Mean",916 ng/mL
same,concentration at 8 hr,"[2]; female, Balb/c, mouse, plasma, po, 30 mg/kg, I-3 PO 30 mg/kg, 8 hr, read-out: Plasma concentration Individual",182 ng/mL
same,concentration at 8 hr,"[2]; female, Balb/c, mouse, plasma, po, 30 mg/kg, I-3 PO 30 mg/kg, 8 hr, read-out: Plasma concentration Mean",164 ng/mL
same,concentration at 24 hr,"[2]; female, Balb/c, mouse, plasma, po, 30 mg/kg, I-3 PO 30 mg/kg, 24 hr, read-out: Plasma concentration Mean",5.93 ng/mL
same,AUC(0-inf),"[2]; mouse, plasma, I-3 IV 1 mg/kg",834 ng·h/mL
same,AUC(0-t),"[2]; mouse, plasma, I-3 IV 1 mg/kg",831 ng·h/mL
same,C0,"[2]; mouse, plasma, I-3 IV 1 mg/kg",4100 ng/mL
same,MRT inf,"[2]; mouse, plasma, I-3 IV 1 mg/kg",0.58 h
same,MRT last,"[2]; mouse, plasma, I-3 IV 1 mg/kg",0.542 h
same,clearance,"[2]; mouse, plasma, I-3 IV 1 mg/kg",20 mL/min/kg
same,half-life,"[2]; mouse, plasma, I-3 IV 1 mg/kg",1.41 h
same,Vd,"[2]; mouse, plasma, I-3 IV 1 mg/kg, read-out: Vss",0.695 L/kg
same,AUC(0-inf),"[2]; mouse, plasma, I-3 PO 30 mg/kg",9000 ng·h/mL
same,AUC(0-t),"[2]; mouse, plasma, I-3 PO 30 mg/kg",8980 ng·h/mL
same,Cmax,"[2]; mouse, plasma, I-3 PO 30 mg/kg",1900 ng/mL
same,MRT inf,"[2]; mouse, plasma, I-3 PO 30 mg/kg",3.62 h
same,MRT last,"[2]; mouse, plasma, I-3 PO 30 mg/kg",3.55 h
same,Tmax,"[2]; mouse, plasma, I-3 PO 30 mg/kg",0.5 h
same,half-life,"[2]; mouse, plasma, I-3 PO 30 mg/kg",2.77 h
